Tests used:
[1] = biological target: alpha-1 (α1) adrenergic receptors; set-up: method as in Yasuno et al. [2006]; settings: ref Yasuno et al. [2006]; cited from earlier work
D4 = biological target: D4; set-up: method as in Yasuno et al. [2006]; settings: ref Yasuno et al. [2006]; cited from earlier work
5-HT1A receptors = biological target: 5-HT1A receptors; set-up: method as in Yasuno et al. [2006]; settings: ref Yasuno et al. [2006]; cited from earlier work
D3 = biological target: D3; set-up: method as in Yasuno et al. [2006]; settings: ref Yasuno et al. [2006]; cited from earlier work
D2 = biological target: D2; set-up: method as in Yasuno et al. [2006]; settings: ref Yasuno et al. [2006]; cited from earlier work
5-HT2B receptors = biological target: 5-HT2B receptors; set-up: method as in Yasuno et al. [2006]; settings: ref Yasuno et al. [2006]; cited from earlier work
α1-adrenergic receptors [2] = biological target: α1-adrenergic receptors; set-up: method as in Chemel et al. [2006]; settings: ref Chemel et al. [2006]; cited from earlier work
[3] = Dynamic PET/MR imaging of brain uptake in rats; assay type: in vivo; settings: rat; for Brain uptake: dynamic PET, bolus i.v. injection, 60 min scan
Method: […]. All experimental procedures were carried out in accordance with the Institutional Animal Care Committee ethical guidelines (Animal Use Protocol # 783).
Adult male Sprague Dawley rats (500–600 g, 8–12 months old) were anesthetized by isoflurane (5% induction; O2 rate: 2 L/min) and catheterized in the lateral tail vein using a Surflash Polyurethane IV Catheter 24G × 3/4″(Terumo; Somerset, New Jersey, US). Following insertion, the catheter was flushed with heparinized saline (30 IU/ml, ~ 200 μl). The animal was transferred to the scanner bed in prone position, the head immobilized in a flat skull position for the duration of the acquisition using built in ear and bite bars; the scanner bed temperature was initially set at 40 °C but was subject to alteration based on animals’ body temperature during the experiment. Anesthesia was maintained throughout the PET/MR scanning procedure (isoflurane: 1.5–2%; O2 rate: 1 L/min) and the animals’ body temperature and respiration parameters were closely monitored.
Imaging studies were conducted on a nanoScan PET/MRI 3 T tomograph (Mediso; Budapest, Hungary). At first, a scout MR was acquired for subsequent PET field of view (FOV) positioning. MR images were used to define anatomical regions of interest (ROIs) through PET/MRI image co-registration. MR sequences included: material map T1-weighted 2D-gradient echo (GRE, TR 354 ms, TE 3.64) multi-FOV sequence for PET and MR co-registration and PET scatter and attenuation corrections, and T2-weighted 2D-fast spin-echo (FSE, TR 3971 ms, TE 87.5 ms) sequence for co-registration with standard rat brain MR template and atlas of Schwarz et al. ([2006]), and PET ROI analyses. MR images were acquired either before or after PET imaging.
[…]. mass injected for [^11C]1–3: 0.15–0.40 nmol/kg), a 60 min emission list mode scan was acquired with an energy window of 400–600 keV.
The acquired list mode data was sorted into 33, 3D (3 × 5 s, 3 × 15 s, 3 × 20s, 7 × 60s and 17 × 180 s) true sinograms (ring difference 84). The 3D sinograms were converted in 2D sinograms using fourier-rebinning (Defrise et al. [1997]), during which corrections were included for detector geometry and efficiencies, attenuation and scatter, prior to image reconstruction using a 2D–filtered back projection (FBKP) with an Hann filter at a cutoff of 0.50 cm-1. A static image of the complete emission acquisition was reconstructed with the manufacturer’s proprietary iterative 3D algorithm (6 subsets, 4 iterations). All image data were corrected for dead-time and decay corrected to the start of acquisition. The dynamic FBKP images were used for the extraction of time-activity curves (TACs). The static iterative image was used for PET and MR co-registration and also for co-registration with standard rat brain MR template and atlas (Schwarz et al. [2006]). Image analyses and extraction of regional brain TACs were performed using Amide software (v1.0.4) (Loening and Gambhir [2003]). Standardized uptake values (SUV) were calculated by normalizing regional radioactivity for injected radioactivity and body weight of the animal. Regional brain BP were obtained by using simplified reference tissue model (SRTM) of Lammertsma and Hume ([1996]), with averaged TACs of left and right cerebellum as the reference. […] Percentages of blocking were calculated by the equation: Blocking% = 100 x (BPblocking – BPbaseline)/BPbaseline.

α1-adrenergic receptors [4] = experiment: PET/MR blocking study with prazosin pre-treatment; assay type: in vivo, Sprague Dawley rats; settings: prazosin 2 mg/kg IV 20 min prior to tracer, rat
Method: 5-HT1A receptor selectivity of the radiotracer with the most promising brain penetrating properties was further investigated in two separate baseline and pre-treatment (blocking) experiments. A within-subject PET/MR imaging design was employed for baseline and blocking experiments. In the first PET/MR imaging session, brain radiotracer uptake was determined under baseline conditions whereby radiotracer was intravenously administered simultaneously with the start of PET acquisition. The catheter was flushed with heparinized saline (~ 100 μl) and capped to allow blocker/radiotracer injections for the subsequent pre-treatment experiment. Before the start of the second PET measurement, the animals were infused with a suitable blocking agent intravenously 20 min prior to radiotracer injection and concomitant PET acquisition. To confirm target engagement at 5-HT1A receptor, WAY-100635 maleate (Sigma-Aldrich), a potent 5-HT1A receptor antagonist (2 mg/kg) was infused intravenously 20 min before radiotracer injection. In order to further investigate potential off-target binding at α1-adrenergic receptors in vivo, prazosin hydrochloride (Sigma-Aldrich), a potent α1-adrenergic receptor antagonist (2 mg/kg) was infused 20 min before radiotracer injection and PET acquisition.
The acquired list mode data was sorted into 33, 3D (3 × 5 s, 3 × 15 s, 3 × 20s, 7 × 60s and 17 × 180 s) true sinograms (ring difference 84). The 3D sinograms were converted in 2D sinograms using fourier-rebinning (Defrise et al. [1997]), during which corrections were included for detector geometry and efficiencies, attenuation and scatter, prior to image reconstruction using a 2D–filtered back projection (FBKP) with an Hann filter at a cutoff of 0.50 cm-1. A static image of the complete emission acquisition was reconstructed with the manufacturer’s proprietary iterative 3D algorithm (6 subsets, 4 iterations). All image data were corrected for dead-time and decay corrected to the start of acquisition. The dynamic FBKP images were used for the extraction of time-activity curves (TACs). The static iterative image was used for PET and MR co-registration and also for co-registration with standard rat brain MR template and atlas (Schwarz et al. [2006]). Image analyses and extraction of regional brain TACs were performed using Amide software (v1.0.4) (Loening and Gambhir [2003]). Standardized uptake values (SUV) were calculated by normalizing regional radioactivity for injected radioactivity and body weight of the animal. Regional brain BP were obtained by using simplified reference tissue model (SRTM) of Lammertsma and Hume ([1996]), with averaged TACs of left and right cerebellum as the reference. This was performed by using the basis function method (BFM) of Gunn et al. ([1997]) in the package of Turku PET Centre (https://gitlab.utu.fi/vesoik/tpcclib) (Gunn et al. [1997]). Percentages of blocking were calculated by the equation: Blocking% = 100 x (BPblocking – BPbaseline)/BPbaseline.

5-HT6 = biological target: T1, 5-HT6 (Homo sapiens, UniProt P50406); experiment: NIMH-PDSP radioligand binding assay, 5-HT6
T1 construct: NIMH-PDSP
Method: (§1) . Cross selectivity for biogenic amines, neurotransmitter receptors, and transporters were determined by radioligand binding assays through NIMH- PDSP using validated and established protocols ([NIMH-PDSP Assay Protocol Book Version III, March 2018]).

PBR = biological target: T2, PBR (Rattus norvegicus, UniProt P16257); experiment: NIMH-PDSP radioligand binding assay, PBR
T2 construct: NIMH-PDSP
Method: as §1

D4R = biological target: T3, D4R (Homo sapiens, UniProt P21917); experiment: NIMH-PDSP radioligand binding assay, D4R
T3 construct: NIMH-PDSP
T3 sequence (P21917 1-419): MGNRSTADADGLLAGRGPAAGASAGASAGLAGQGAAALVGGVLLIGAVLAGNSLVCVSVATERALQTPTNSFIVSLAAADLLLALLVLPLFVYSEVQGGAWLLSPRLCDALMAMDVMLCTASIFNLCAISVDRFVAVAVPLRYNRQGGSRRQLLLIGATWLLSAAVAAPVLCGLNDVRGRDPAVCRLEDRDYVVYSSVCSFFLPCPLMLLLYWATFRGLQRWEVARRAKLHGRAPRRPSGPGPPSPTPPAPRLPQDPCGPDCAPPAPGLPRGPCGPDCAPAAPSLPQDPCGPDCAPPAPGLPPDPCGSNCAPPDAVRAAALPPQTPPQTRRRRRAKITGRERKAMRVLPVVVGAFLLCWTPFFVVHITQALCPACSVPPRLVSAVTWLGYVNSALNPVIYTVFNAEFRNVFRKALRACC
Method: as §1

D3R = biological target: T4, D3R (Homo sapiens, UniProt P35462); experiment: NIMH-PDSP radioligand binding assay, D3R
T4 construct: NIMH-PDSP
Method: as §1

5-HT1B = biological target: T5, 5-HT1B (Homo sapiens, UniProt P28222); experiment: NIMH-PDSP radioligand binding assay, 5-HT1B
T5 construct: NIMH-PDSP
Method: as §1

5-HT5a = biological target: T6, 5-HT5a (Homo sapiens, UniProt P47898); experiment: NIMH-PDSP radioligand binding assay, 5-HT5a
T6 construct: NIMH-PDSP
Method: as §1

5-HT2B = biological target: T7, 5-HT2B (Homo sapiens, UniProt P41595); experiment: NIMH-PDSP radioligand binding assay, 5-HT2B
T7 construct: NIMH-PDSP
Method: as §1

DAT = DAT (Homo sapiens, UniProt Q01959); experiment: NIMH-PDSP radioligand binding assay, DAT
Method: as §1

5-HT1E = biological target: T8, 5-HT1E (Homo sapiens, UniProt P28566); experiment: NIMH-PDSP radioligand binding assay, 5-HT1E
T8 construct: NIMH-PDSP
Method: as §1

NET = NET (Homo sapiens, UniProt P23975); experiment: NIMH-PDSP radioligand binding assay, NET
Method: as §1

Sigma1R = biological target: T9, Sigma1R (Homo sapiens, UniProt Q99720); experiment: NIMH-PDSP radioligand binding assay, Sigma1R
T9 construct: NIMH-PDSP
Method: as §1

5-HT3 = biological target: T10, 5-HT3 (Homo sapiens, UniProt P46098); experiment: NIMH-PDSP radioligand binding assay, 5-HT3
T10 construct: NIMH-PDSP
T10 sequence (P46098 24-478): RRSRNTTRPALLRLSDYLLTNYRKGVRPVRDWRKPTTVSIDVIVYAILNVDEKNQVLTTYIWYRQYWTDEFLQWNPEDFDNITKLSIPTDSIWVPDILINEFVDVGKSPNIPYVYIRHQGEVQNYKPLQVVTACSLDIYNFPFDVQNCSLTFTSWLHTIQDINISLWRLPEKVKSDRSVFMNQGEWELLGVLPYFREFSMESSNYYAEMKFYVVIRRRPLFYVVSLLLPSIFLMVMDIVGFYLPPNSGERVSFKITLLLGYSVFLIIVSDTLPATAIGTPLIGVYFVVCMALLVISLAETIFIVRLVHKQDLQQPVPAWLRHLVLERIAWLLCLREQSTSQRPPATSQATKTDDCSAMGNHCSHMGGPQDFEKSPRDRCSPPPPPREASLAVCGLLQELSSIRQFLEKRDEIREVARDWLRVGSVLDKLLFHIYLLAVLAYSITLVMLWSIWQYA
Method: as §1

5-HT1D = biological target: T11, 5-HT1D (Homo sapiens, UniProt P28221); experiment: NIMH-PDSP radioligand binding assay, 5-HT1D
T11 construct: NIMH-PDSP
Method: as §1

SERT = SERT (Homo sapiens, UniProt P31645); experiment: NIMH-PDSP radioligand binding assay, SERT
Method: as §1

5-HT4 = biological target: T12, 5-HT4 (Homo sapiens, UniProt Q13639); experiment: NIMH-PDSP radioligand binding assay, 5-HT4
T12 construct: NIMH-PDSP
Method: as §1

NOP = biological target: T13, NOP (Homo sapiens, UniProt P41146); experiment: NIMH-PDSP radioligand binding assay, NOP
T13 construct: NIMH-PDSP
Method: as §1

T1 sequence (P50406 whole entry, species assumed): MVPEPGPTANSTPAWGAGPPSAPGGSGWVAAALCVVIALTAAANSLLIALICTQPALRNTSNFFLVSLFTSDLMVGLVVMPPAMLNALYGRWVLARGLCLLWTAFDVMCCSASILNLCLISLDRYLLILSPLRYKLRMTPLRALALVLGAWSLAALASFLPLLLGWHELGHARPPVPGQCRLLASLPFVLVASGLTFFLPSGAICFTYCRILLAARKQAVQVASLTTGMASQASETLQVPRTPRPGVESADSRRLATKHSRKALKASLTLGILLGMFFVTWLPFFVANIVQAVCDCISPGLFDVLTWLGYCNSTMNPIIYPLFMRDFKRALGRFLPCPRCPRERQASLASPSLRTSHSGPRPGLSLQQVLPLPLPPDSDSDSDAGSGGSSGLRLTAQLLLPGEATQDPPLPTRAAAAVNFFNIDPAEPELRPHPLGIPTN
T7 sequence (P41595 whole entry, species assumed): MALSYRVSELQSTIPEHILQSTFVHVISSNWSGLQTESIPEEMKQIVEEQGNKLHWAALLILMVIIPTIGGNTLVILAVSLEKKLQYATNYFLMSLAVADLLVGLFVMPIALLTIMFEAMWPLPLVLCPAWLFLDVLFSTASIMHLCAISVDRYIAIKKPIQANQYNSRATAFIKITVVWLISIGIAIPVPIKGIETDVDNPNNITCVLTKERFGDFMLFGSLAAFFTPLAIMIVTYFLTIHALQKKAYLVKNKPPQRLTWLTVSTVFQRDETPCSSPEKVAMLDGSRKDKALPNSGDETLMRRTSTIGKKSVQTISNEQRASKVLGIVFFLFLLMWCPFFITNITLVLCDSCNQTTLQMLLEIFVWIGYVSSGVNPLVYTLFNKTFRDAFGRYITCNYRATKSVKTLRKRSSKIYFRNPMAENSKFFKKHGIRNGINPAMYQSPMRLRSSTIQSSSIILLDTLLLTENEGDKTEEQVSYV
T6 sequence (P47898 whole entry, species assumed): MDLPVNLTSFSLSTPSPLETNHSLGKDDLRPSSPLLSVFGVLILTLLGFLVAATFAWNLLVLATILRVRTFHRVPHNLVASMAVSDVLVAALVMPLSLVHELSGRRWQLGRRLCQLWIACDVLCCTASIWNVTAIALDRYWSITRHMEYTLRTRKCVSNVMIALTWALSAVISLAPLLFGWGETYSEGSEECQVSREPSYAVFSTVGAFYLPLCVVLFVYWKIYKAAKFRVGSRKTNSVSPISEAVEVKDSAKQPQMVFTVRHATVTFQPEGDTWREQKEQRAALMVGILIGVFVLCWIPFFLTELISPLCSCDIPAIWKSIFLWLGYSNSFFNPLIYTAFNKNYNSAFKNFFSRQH
Sequence of SERT (P31645 whole entry, species assumed): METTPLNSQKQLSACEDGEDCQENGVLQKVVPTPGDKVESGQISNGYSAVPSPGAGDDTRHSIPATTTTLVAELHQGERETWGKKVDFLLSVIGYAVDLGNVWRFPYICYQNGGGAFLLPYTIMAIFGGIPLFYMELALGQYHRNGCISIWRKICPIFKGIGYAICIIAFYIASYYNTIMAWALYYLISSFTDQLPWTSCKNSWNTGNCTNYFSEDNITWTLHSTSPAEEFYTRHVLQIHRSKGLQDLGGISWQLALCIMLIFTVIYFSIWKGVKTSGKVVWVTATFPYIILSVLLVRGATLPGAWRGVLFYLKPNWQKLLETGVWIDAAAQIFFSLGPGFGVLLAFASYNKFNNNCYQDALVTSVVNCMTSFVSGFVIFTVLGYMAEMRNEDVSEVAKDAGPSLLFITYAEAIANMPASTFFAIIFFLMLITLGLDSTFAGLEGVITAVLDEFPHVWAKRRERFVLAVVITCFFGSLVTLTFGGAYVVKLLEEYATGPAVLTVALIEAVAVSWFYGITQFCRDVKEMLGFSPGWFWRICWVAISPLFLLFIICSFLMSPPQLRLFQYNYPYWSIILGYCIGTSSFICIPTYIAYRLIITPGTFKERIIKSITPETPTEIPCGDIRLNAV
T11 sequence (P28221 whole entry, species assumed): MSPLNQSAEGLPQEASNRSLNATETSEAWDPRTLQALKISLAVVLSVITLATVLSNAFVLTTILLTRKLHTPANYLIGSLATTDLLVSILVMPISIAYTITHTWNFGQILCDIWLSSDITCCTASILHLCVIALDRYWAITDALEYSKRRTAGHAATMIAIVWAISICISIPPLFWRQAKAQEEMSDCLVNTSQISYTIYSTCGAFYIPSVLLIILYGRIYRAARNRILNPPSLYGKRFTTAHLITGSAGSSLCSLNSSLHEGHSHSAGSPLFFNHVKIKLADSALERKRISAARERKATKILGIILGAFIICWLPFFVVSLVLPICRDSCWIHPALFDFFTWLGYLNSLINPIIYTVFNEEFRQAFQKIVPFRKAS
T12 sequence (Q13639 whole entry, species assumed): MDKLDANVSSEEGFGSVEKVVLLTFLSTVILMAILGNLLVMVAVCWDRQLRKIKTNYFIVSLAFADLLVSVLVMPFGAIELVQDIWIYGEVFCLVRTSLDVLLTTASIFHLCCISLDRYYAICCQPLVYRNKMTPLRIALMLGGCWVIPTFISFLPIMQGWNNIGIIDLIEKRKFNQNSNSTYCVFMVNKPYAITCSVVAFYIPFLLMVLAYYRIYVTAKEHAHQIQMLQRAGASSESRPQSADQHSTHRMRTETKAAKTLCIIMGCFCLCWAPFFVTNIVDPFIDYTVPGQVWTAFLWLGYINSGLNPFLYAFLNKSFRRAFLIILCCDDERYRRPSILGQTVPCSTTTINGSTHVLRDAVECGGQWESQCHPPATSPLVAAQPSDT
T9 sequence (Q99720 whole entry, species assumed): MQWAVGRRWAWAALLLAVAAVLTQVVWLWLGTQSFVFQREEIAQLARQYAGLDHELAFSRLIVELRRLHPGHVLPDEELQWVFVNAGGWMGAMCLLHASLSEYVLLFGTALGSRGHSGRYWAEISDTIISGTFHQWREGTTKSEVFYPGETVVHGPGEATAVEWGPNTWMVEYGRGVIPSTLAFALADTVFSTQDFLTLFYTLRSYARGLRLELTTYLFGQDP
T4 sequence (P35462 whole entry): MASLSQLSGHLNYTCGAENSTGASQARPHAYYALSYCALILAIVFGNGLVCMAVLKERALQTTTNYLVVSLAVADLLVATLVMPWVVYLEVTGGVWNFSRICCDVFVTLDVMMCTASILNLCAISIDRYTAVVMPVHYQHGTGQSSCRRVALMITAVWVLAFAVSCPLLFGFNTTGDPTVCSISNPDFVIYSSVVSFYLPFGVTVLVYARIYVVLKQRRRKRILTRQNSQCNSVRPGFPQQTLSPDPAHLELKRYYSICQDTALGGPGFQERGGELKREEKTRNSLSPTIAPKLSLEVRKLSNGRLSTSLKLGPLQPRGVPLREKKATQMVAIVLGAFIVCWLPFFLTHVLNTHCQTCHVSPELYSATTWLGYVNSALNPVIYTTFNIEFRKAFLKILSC
Sequence of DAT (Q01959 whole entry, species assumed): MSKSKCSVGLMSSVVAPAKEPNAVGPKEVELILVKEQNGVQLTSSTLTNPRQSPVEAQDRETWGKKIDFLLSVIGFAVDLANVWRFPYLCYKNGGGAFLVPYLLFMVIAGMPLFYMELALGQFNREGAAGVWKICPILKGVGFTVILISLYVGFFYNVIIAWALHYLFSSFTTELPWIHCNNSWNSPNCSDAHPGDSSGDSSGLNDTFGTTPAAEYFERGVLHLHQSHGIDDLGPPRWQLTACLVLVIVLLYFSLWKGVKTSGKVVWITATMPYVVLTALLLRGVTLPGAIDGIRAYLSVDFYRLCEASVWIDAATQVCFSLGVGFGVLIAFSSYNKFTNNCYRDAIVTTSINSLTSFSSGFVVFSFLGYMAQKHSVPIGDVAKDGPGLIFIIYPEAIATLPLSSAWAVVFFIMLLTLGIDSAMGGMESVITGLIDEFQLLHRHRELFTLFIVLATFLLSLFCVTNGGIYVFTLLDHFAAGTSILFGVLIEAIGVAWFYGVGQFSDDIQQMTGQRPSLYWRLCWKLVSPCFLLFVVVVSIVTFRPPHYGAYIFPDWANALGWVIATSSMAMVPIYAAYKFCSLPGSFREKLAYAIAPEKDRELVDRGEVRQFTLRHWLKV
T13 sequence (P41146 whole entry): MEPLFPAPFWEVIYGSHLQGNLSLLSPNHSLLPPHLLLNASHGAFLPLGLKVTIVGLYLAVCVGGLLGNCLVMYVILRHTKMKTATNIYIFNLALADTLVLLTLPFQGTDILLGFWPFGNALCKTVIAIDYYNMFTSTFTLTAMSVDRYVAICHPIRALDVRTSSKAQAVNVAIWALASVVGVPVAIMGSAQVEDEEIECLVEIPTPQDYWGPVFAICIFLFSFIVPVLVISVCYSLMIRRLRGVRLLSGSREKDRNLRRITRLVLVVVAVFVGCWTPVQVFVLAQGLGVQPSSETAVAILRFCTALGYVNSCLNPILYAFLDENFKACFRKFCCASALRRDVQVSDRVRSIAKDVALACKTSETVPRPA
Sequence of NET (P23975 whole entry): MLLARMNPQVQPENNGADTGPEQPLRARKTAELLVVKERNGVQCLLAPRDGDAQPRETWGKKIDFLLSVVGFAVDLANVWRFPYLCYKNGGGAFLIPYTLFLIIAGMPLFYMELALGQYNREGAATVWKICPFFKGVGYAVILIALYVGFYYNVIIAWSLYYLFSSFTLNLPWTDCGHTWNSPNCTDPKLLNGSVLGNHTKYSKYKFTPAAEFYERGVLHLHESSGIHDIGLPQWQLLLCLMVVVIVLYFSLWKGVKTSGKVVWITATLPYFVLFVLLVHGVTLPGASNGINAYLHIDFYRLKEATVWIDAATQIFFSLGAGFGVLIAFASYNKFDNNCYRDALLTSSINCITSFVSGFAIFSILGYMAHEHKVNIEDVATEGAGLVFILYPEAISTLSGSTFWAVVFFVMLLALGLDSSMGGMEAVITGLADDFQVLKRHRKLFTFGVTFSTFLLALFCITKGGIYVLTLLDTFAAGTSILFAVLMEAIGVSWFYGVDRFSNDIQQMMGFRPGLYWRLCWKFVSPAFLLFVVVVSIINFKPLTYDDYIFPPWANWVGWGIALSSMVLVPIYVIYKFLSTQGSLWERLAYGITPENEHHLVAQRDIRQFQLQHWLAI

COc1ccccc1N1CCN(CCC(C(=O)N2CCCCCC2)c2ccccc2)CC1 (stereo in doubt) [[^11C](R)-RWAY]
Ki [1]: 10.3 nM
Ki (D4): 15.6 nM
Ki (5-HT1A receptors): 0.6 nM
Ki (D3): 5.1 nM
Ki (D2): 34.5 nM
Ki (5-HT2B receptors): 7.2 nM

O=C(NCCN1CCN(c2ccccc2O)CC1)c1ccccn1 [10a, N-(2-(4-(2-hydroxyphenyl)piperazin-1-yl)ethyl)picolinamide]
melting point: 112 to 113 °C

COc1ccccc1N1CCN(CCN(C(=O)C2CCCCC2)c2ccccn2)CC1 [[carbonyl-^11C]WAY100635]
Ki (α1-adrenergic receptors [2]): 16.4 nM

N#CN=C(NCCCN1CCN(c2ccccc2O)CC1)c1ccccn1 [compound 7, N'-Cyano-N-(3-(4-(2-hydroxyphenyl)piperazin-1-yl)propyl)picolinamidine]
melting point: 137 to 138 °C

[11CH3]Oc1ccccc1N1CCN(CCCN/C(=N\C#N)c2ccccn2)CC1 [[^11C]1]
Brain uptake [3]: negligible

[11CH3]Oc1ccccc1N1CCN(CCNC(=O)c2ccncc2)CC1 [[^11C]3]
decrease of whole brain BP (α1-adrenergic receptors [4]; SRTM, cerebellum reference): 63%
decrease of BP in anterior cingulate cortex (α1-adrenergic receptors [4]): 69%
decrease of BP in hippocampus (α1-adrenergic receptors [4]): 56%
decrease of BP in striatum (α1-adrenergic receptors [4]): 34%
decrease of BP in thalamus (α1-adrenergic receptors [4]): 73%
decrease of binding in the saliva gland (α1-adrenergic receptors [4]): 68%
early peak SUV in brain ([3]; male, Sprague Dawley, in vivo): 4–5
time of early peak SUV following radiotracer injection ([3]; male, Sprague Dawley, in vivo): ~ 1 min
washout from brain ([3]; in vivo): fast

[11CH3]Oc1ccccc1N1CCN(CCNC(=O)c2ccccn2)CC1 [[^11C]2]
Brain uptake [3]: negligible

COc1ccccc1N1CCN(CCNC(=O)c2ccncc2)CC1 [Compound 3]
Ki (5-HT6): > 10000 nM
Ki (PBR): > 10000 nM
Ki (D4R): 153 nM
Ki (D3R): 133 nM
Ki (5-HT1B): > 10000 nM
Ki (5-HT5a): 1810 nM
Ki (5-HT2B): 137 nM
Ki (DAT): > 10000 nM
Ki (5-HT1E): > 10000 nM
Ki (NET): > 10000 nM
Ki (Sigma1R): > 10000 nM
Ki (5-HT3): > 10000 nM
Ki (5-HT1D): 1180 nM
Ki (SERT): > 10000 nM
Ki (5-HT4): > 10000 nM
Ki (NOP): > 10000 nM

O=C(NCCN1CCN(c2ccccc2O)CC1)c1ccncc1 [10b, N-(2-(4-(2-hydroxyphenyl)piperazin-1-yl)ethyl)isonicotinamide]
melting point: 105 to 106 °C

Source: article PMC7237647, “Synthesis, in vitro and in vivo evaluation of ^11C-O-methylated arylpiperazines as potential serotonin 1A (5-HT1A) receptor antagonist radiotracers” (EJNMMI Radiopharmacy and Chemistry, 2020)
